The values that follow come from US12516039B2, “N-linked isoquinoline amides as LRRK2 inhibitors, pharmaceutical compositions, and uses thereof” (Merck Sharp & Dohme LLC, priority 2020, dated 2026).

The assay has as its target T1, GST-tagged truncated human mutant G2019S LRRK2 (Homo sapiens, UniProt Q5S007, G2019S).
T1 construct: GST-tagged truncated human mutant G2019S LRRK2; purchased Life Technologies Corporation (Carlsbad, CA)
The assay can be described thus: LRRK2 G2019S Km ATP LanthaScreen assay. The conditions noted are these: 134 μM ATP (Km ATP), LRRKtide substrate, mean of several tests; for IC50: read-out: LRRK2 pIC50 (converted). It counts as biochemical. The essentials: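 IC50 values are means of repeat runs, fitted with a 4-parameter logistic to the 520/495 nm TR-FRET ratio from a Tb-labeled anti-phospho-LRRKtide antibody added with EDTA. Reactions ran 90 min at room temperature at Km ATP (134 μM) with fluorescein-LRRKtide, after 15-min compound preincubation with truncated GST-tagged G2019S LRRK2.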
(TR-FRET usually uses a lanthanide donor and a delayed reading to cut background.)

T1 sequence (Q5S007 970-2527 G2019S limits assumed): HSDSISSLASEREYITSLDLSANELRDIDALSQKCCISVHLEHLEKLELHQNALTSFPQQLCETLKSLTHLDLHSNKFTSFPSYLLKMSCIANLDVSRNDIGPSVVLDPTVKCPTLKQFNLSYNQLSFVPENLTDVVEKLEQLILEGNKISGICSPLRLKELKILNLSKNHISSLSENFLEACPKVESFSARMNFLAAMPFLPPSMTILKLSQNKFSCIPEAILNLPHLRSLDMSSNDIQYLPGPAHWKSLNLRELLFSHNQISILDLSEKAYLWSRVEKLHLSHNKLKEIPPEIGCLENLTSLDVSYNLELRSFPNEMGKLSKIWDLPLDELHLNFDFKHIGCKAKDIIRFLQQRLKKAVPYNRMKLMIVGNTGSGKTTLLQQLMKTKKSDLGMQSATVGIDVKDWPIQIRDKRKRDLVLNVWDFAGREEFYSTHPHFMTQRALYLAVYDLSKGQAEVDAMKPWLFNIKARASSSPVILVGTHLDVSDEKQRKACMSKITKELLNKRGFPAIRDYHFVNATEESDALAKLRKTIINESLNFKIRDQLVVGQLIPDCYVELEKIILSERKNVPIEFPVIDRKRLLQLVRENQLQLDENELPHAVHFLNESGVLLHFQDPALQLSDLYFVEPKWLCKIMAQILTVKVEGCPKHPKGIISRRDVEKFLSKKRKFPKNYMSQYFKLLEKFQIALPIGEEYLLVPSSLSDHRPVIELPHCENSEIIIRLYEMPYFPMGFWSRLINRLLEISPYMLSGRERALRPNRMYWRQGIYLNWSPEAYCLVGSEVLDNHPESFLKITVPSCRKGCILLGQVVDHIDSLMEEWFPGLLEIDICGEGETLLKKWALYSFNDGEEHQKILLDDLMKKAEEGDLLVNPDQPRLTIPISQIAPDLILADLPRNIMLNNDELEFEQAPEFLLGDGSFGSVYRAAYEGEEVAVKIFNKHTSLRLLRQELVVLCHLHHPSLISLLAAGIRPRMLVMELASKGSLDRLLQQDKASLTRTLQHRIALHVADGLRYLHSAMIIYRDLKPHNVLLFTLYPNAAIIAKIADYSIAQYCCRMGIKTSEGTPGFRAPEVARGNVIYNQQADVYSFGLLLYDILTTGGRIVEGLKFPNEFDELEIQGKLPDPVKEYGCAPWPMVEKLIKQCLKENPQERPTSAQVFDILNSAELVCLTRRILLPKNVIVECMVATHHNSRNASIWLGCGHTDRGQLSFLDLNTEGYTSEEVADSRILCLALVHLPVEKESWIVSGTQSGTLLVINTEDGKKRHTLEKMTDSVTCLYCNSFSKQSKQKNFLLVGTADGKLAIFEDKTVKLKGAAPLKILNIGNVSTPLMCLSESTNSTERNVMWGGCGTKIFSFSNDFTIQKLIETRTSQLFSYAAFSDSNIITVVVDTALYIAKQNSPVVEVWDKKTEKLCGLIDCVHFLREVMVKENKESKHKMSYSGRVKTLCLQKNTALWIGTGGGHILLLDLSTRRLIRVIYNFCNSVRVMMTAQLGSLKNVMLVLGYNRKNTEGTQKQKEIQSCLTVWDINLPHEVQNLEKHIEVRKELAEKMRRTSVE

In the case of `Cc1cc2cnc(NC(=O)C3CCOC(C)(C)C3)cc2cc1N1CCN(C2(C)CCOC2)CC1` (single isomer, unassigned) [Ex-10.42, (4R or 4S)-2,2-dimethyl-N-[7-methyl-6-[4-((R or S)-3-methyltetrahydrofuran-3-yl)piperazin-1-yl]-3-isoquinolyl]tetrahydropyran-4-carboxamide], the IC50 is 0.525 nM. Consider `CC1(N2CCN(c3cc4cc(NC(=O)C5CC56CCOCC6)ncc4cc3Cl)CC2)CCOC1` (single isomer, unassigned) [Ex-5.12], for which the IC50 is 126 nM. Same read-out and setting: the result for `CC1(C#N)CCN(c2cc3cc(NC(=O)C4CC4c4cncnc4)ncc3cc2Cl)CC1` (single isomer, unassigned) [Ex-5.16] reads 427 nM.

Regarding “(3R or 3S)-N-[6-[4-((3R,4R or 3S,4S)-4-fluoro-3-methyl-tetrahydrofuran-3-yl)piperazin-1-yl]-7-methyl-3-isoquinolyl]-5,5-dimethyl-tetrahydrofuran-3-carboxamide [Ex-10.94]”, the “LRRK2 pIC50” value was 9.40.

As for `CC1(C2CCOC2)CC1C(=O)Nc1cc2cc(N3CCN(C4(C)COCC4O)CC3)c(Cl)cc2cn1` (single isomer, unassigned) [Ex-10.87, (1R,2R or 1S,2S, or 1R,2S, or 1S,2R)-N-[7-chloro-6-[4-((3R,4R or 3S,4S)-4-hydroxy-3-methyl-tetrahydrofuran-3-yl)piperazin-1-yl]-3-isoquinolyl]-2-methyl-2-tetrahydrofuran-3-yl-cyclopropanecarboxamide], the IC50 was 0.0813 nM. The same measure, in the same setting: the figure for `CC(C)n1nccc1C1CC1C(=O)Nc1cc2cc(N3CCN(C4(C)COCC4O)CC3)c(Cl)cc2cn1` (single isomer, unassigned) [Ex-10.21, (1R,2R or 1S,2S)-N-[7-chloro-6-[4-((3R,4R or 3S,4S)-4-hydroxy-3-methyl-tetrahydrofuran-3-yl)piperazin-1-yl]-3-isoquinolyl]-2-(2-isopropylpyrazol-3-yl)cyclopropanecarboxamide] is 44.7 nM. For `CCC1C(C(=O)Nc2cc3cc(N4CCC(F)(C#N)CC4)c(Cl)cc3cn2)C1c1cnn(C)c1` (stereo not drawn) [Ex-4.10], the “LRRK2 pIC50” value is on record as 7.29. For the molecule `CC1(N2CCN(c3cc4cc(NC(=O)C5CCC56CCOCC6)ncc4cc3Cl)CC2)COCC1O` (single isomer, unassigned) [Ex-1.28, (R or S)-N-(7-chloro-6-(4-((3R,4R or 3S,4S)-4-hydroxy-3-methyltetrahydrofuran-3-yl)piperazin-1-yl)isoquinolin-3-yl)-7-oxaspiro[3.5]nonane-1-carboxamide], the IC50 was 12 nM. Still for that read-out and setting: the result for `CC1(N2CCN(c3cc4cc(NC(=O)C5C6COCC65)ncc4cc3Cl)CC2)COCC1O` (single isomer, unassigned) [Ex-1.10, (1R or S)-N-(7-chloro-6-(4-((3R,4R or 3S,4S)-4-hydroxy-3-methyltetrahydrofuran-3-yl)piperazin-1-yl)isoquinolin-3-yl)-3-oxabicyclo[3.1.0]hexane-6-carboxamide] reads 107 nM. Consider `Cc1cc2cnc(NC(=O)C3CC3c3ccccn3)cc2cc1N1CCN(C2(C)CCOC2)CC1` (stereo not drawn) [Ex-9.21], for which the “LRRK2 pIC50” value is given as 10.09. On to `C[C@H]1CN(C2(C)COCC2O)CCN1c1cc2cc(NC(=O)C3CC34CCOCC4)ncc2cc1Cl` (single isomer, unassigned) [Ex-14.1, N-(7-chloro-6-((2R or 2S)-4-(4-(3R,4R or 3S,4S)-hydroxy-3-methyltetrahydrofuran-3-yl)-2-methylpiperazin-1-yl)isoquinolin-3-yl)-6-oxaspiro[2.5]octane-1-carboxamide], for which the IC50 was 87.1 nM. For `CC1(C)C(C(=O)Nc2cc3cc(N4CCN(C5(C)COCC5O)CC4)c(Cl)cc3cn2)C1C1CCCCO1` (single isomer, unassigned) [Ex-10.91, (1R,2R,3R, 1R,2S,3R, or 1S,2R,3S, or 1S,2S,3S)-N-[7-chloro-6-[4-((3R,4R or 3S,4S)-4-hydroxy-3-methyl-tetrahydrofuran-3-yl)piperazin-1-yl]-3-isoquinolyl]-2,2-dimethyl-3-tetrahydropyran-2-yl-cyclopropanecarboxamide], the IC50 was 0.0813 nM.
